Reference: publication PMC13608006 (Journal of medicinal chemistry, 2018)

How the values were obtained:
EV-A71 = test: antiviral CPE assay, anti-EV-A71 in LLC cells; assay type: cell-based, enterovirus 71 (EV-A71); settings: SI50 = CC50/EC50
CV-B3 (CVB3-H3) = assay type: cell-based, coxsackievirus B3; settings: for SI50 (CV-B3 in HeLa cells): SI50 = CC50/EC50

SMILES | SI50 (EV-A71 in LLC cells) (EV-A71) | SI50 (CV-B3 in HeLa cells) (CV-B3 (CVB3-H3)) | antiviral activities against coxsackievirus B3 (CV-B3) (CV-B3 (CVB3-H3))
CC(C)n1ncc2c(C(=O)Nc3ccccc3F)cc(-c3ccccc3)nc21 [JX002, N-(2-Fluorophenyl)-1-isopropyl-6-phenyl-1H-pyrazolo[3,4-b]pyridine-4-carboxamide] | SI50: >35.1 | SI50: 8.3 | –
CC(C)n1ncc2c(C(=O)Nc3ccccc3F)cc(-c3ccncc3)nc21 [JX003, N-(2-Fluorophenyl)-1-isopropyl-6-(pyridin-4-yl)-1H-pyrazolo[3,4-b]pyridine-4-carboxamide] | – | SI50: 7.4 | –
CC(C)n1ncc2c(C(=O)Nc3ccccc3F)cc(-c3ccccn3)nc21 [JX004, N-(2-Fluorophenyl)-1-isopropyl-6-(pyridin-2-yl)-1H-pyrazolo[3,4-b]pyridine-4-carboxamide] | – | SI50: >29.0 | –
CC(C)n1ncc2c(C(=O)Nc3ccccc3F)cc(-c3cccnc3)nc21 [JX005, N-(2-Fluorophenyl)-1-isopropyl-6-(pyridin-3-yl)-1H-pyrazolo[3,4-b]pyridine-4-carboxamide] | – | SI50: 5.4 | –
CC(C)n1ncc2c(C(=O)Nc3ccc(F)cc3F)cc(-c3cccs3)nc21 [JX008, N-(2,4-Difluorophenyl)-1-isopropyl-6-(thiophen-2-yl)-1H-pyrazolo[3,4-b]pyridine-4-carboxamide] | SI50: >125.0 | SI50: >142.9 | –
CC(C)n1ncc2c(C(=O)Nc3c(F)cccc3F)cc(-c3cccs3)nc21 [JX009, N-(2,6-Difluorophenyl)-1-isopropyl-6-(thiophen-2-yl)-1H-pyrazolo[3,4-b]pyridine-4-carboxamide] | SI50: >58.8 | SI50: >62.5 | –
CC(C)n1ncc2c(C(=O)Nc3ccccc3F)cc(-c3cncs3)nc21 [JX010, N-(2-Fluorophenyl)-1-isopropyl-6-(thiazol-5-yl)-1H-pyrazolo[3,4-b]pyridine-4-carboxamide] | SI50: 27.0 | SI50: >60.6 | –
O=C(Nc1ccccc1F)c1cc(-c2cccs2)nc2c1cnn2-c1ccccc1 [JX012, N-(2-Fluorophenyl)-1-phenyl-6-(thiophen-2-yl)-1H-pyrazolo[3,4-b]pyridine-4-carboxamide] | – | – | none of the above analogs demonstrated antiviral activities
CC(C)(C)n1ncc2c(C(=O)Nc3ccccc3F)cc(-c3cccs3)nc21 [JX013, 1-(tert-Butyl)-N-(2-fluorophenyl)-6-(thiophen-2-yl)-1H-pyrazolo[3,4-b]pyridine-4-carboxamide] | – | – | none of the above analogs demonstrated antiviral activities
O=C(Nc1ccccc1F)c1cc(-c2cccs2)nc2c1cnn2C1CCC1 [JX014, 1-Cyclobutyl-N-(2-fluorophenyl)-6-(thiophen-2-yl)-1H-pyrazolo[3,4-b]pyridine-4-carboxamide] | – | – | none of the above analogs demonstrated antiviral activities
CC(C)n1ncc2c(C(=O)Nc3ccc(F)c(F)c3)cc(-c3cccs3)nc21 [JX015, N-(3,4-Difluorophenyl)-1-isopropyl-6-(thiophen-2-yl)-1H-pyrazolo[3,4-b]pyridine-4-carboxamide] | – | SI50: >153.8 | –
CC(C)n1ncc2c(C(=O)Nc3ccc(F)cc3)cc(-c3cccs3)nc21 [JX017, N-(4-Fluorophenyl)-1-isopropyl-6-(thiophen-2-yl)-1H-pyrazolo[3,4-b]pyridine-4-carboxamide] | SI50: >222.2 | SI50: >285.7 | –
CC(C)n1ncc2c(C(=O)Nc3cc(F)ccc3F)cc(-c3cccs3)nc21 [JX018, N-(2,5-Difluorophenyl)-1-isopropyl-6-(thiophen-2-yl)-1H-pyrazolo[3,4-b]pyridine-4-carboxamide] | SI50: 28.6 | SI50: >74.1 | –
CC(C)n1ncc2c(C(=O)Nc3cccc(F)c3F)cc(-c3cccs3)nc21 [JX019, N-(2,3-Difluorophenyl)-1-isopropyl-6-(thiophen-2-yl)-1H-pyrazolo[3,4-b]pyridine-4-carboxamide] | SI50: 25.0 | SI50: >74.1 | –
CC(C)n1ncc2c(C(=O)Nc3c(F)cc(F)cc3F)cc(-c3cccs3)nc21 [JX020, 1-Isopropyl-6-(thiophen-2-yl)-N-(2,4,6-trifluorophenyl)-1H-pyrazolo[3,4-b]pyridine-4-carboxamide] | SI50: >66.7 | SI50: >111.1 | –
CC(C)n1ncc2c(C(=O)Nc3cccc(F)c3)cc(-c3cccs3)nc21 [JX021, N-(3-Fluorophenyl)-1-isopropyl-6-(thiophen-2-yl)-1H-pyrazolo[3,4-b]pyridine-4-carboxamide] | SI50: >83.3 | SI50: >250.0 | –
O=C(Nc1ccccc1F)c1cc(-c2cccs2)nc2c1cnn2CC(F)(F)F [JX022, N-(2-Fluorophenyl)-6-(thiophen-2-yl)-1-(2,2,2-trifluoroethyl)-1H-pyrazolo[3,4-b]pyridine-4-carboxamide] | – | – | none of the above analogs demonstrated antiviral activities

SMILES | SI50 (EV-A71 in LLC cells) (EV-A71) | SI50 (CV-B3 in HeLa cells) (CV-B3 (CVB3-H3)) | antiviral activities against coxsackievirus B3 (CV-B3) (CV-B3 (CVB3-H3))
CC(C)n1ncc2c(C(=O)Nc3ccc(F)cc3)cc(-c3ccco3)nc21 [JX026, N-(4-Fluorophenyl)-6-(furan-2-yl)-1-isopropyl-1H-pyrazolo-[3,4-b]pyridine-4-carboxamide] | SI50: >76.9 | SI50: >83.0 | –
O=C(Nc1ccc(F)cc1)c1cc(-c2cccs2)nc2c1cnn2C1CCCC1 [JX027, 1-Cyclopentyl-N-(4-fluorophenyl)-6-(thiophen-2-yl)-1H-pyrazolo[3,4-b]pyridine-4-carboxamide] | – | – | none of the above analogs demonstrated antiviral activities
O=C(Nc1ccc(F)cc1)c1cc(-c2cccs2)nc2c1cnn2C1CCCCC1 [JX028, 1-Cyclohexyl-N-(4-fluorophenyl)-6-(thiophen-2-yl)-1H-pyrazolo[3,4-b]pyridine-4-carboxamide] | – | – | none of the above analogs demonstrated antiviral activities
O=C(Nc1ccc(F)cc1)c1cc(-c2cccs2)nc2c1cnn2C1CCCCCC1 [JX029, 1-Cycloheptyl-N-(4-fluorophenyl)-6-(thiophen-2-yl)-1H-pyrazolo[3,4-b]pyridine-4-carboxamide] | – | – | none of the above analogs demonstrated antiviral activities
CC(C)n1ncc2c(C(=O)Nc3ccc(F)cc3)cc(-c3ccsc3)nc21 [JX030, N-(4-Fluorophenyl)-1-isopropyl-6-(thiophen-3-yl)-1H-pyrazolo[3,4-b]pyridine-4-carboxamide] | SI50: >142.9 | SI50: 19.2 | –
COc1ccc(Cn2ncc3c(C(=O)Nc4ccc(F)cc4)cc(-c4cccs4)nc32)cc1 [JX031, N-(4-Fluorophenyl)-1-(4-methoxybenzyl)-6-(thiophen-2-yl)-1H-pyrazolo[3,4-b]pyridine-4-carboxamide] | – | – | none of the above analogs demonstrated antiviral activities
O=C(Nc1ccc(F)cc1)c1cc(-c2cccs2)nc2[nH]ncc12 [JX032, N-(4-Fluorophenyl)-6-(thiophen-2-yl)-1H-pyrazolo[3,4-b]-pyridine-4-carboxamide] | – | – | none of the above analogs demonstrated antiviral activities
CC(C)n1ncc2c(C(=O)Nc3ccccc3S(N)(=O)=O)cc(-c3cccs3)nc21 [JX033, 1-Isopropyl-N-(2-sulfamoylphenyl)-6-(thiophen-2-yl)-1H-pyrazolo[3,4-b]pyridine-4-carboxamide] | SI50: 10.0 | SI50: 3.8 | –
CC(C)n1ccc2c(C(=O)Nc3ccc(F)cc3)cc(-c3cccs3)nc21 [JX037, N-(4-Fluorophenyl)-1-isopropyl-6-(thiophen-2-yl)-1H-pyrrolo[2,3-b]pyridine-4-carboxamide] | – | SI50: 64.5 | –
CC(C)n1ncc2c(C(=O)Nc3ccc(F)cc3)cc(C3CC3)nc21 [JX038, 6-Cyclopropyl-N-(4-fluorophenyl)-1-isopropyl-1H-pyrazolo-[3,4-b]pyridine-4-carboxamide] | SI50: 3.9 | SI50: 3.0 | –
CC(C)n1ncc2c(C(=O)Nc3ccccn3)cc(-c3cccs3)nc21 [JX040, 1-Isopropyl-N-(pyridin-2-yl)-6-(thiophen-2-yl)-1H-pyrazolo-[3,4-b]pyridine-4-carboxamide] | SI50: >400.0 | SI50: >250.0 | –
CC(C)n1ncc2c(C(=O)Nc3ncccn3)cc(-c3cccs3)nc21 [JX041, 1-Isopropyl-N-(pyrimidin-2-yl)-6-(thiophen-2-yl)-1H-pyrazolo[3,4-b]pyridine-4-carboxamide] | SI50: 150.0 | SI50: 62.5 | –
CC(C)n1ncc2c(C(=O)Nc3ccncc3)cc(-c3cccs3)nc21 [JX042, 1-Isopropyl-N-(pyridin-4-yl)-6-(thiophen-2-yl)-1H-pyrazolo-[3,4-b]pyridine-4-carboxamide] | SI50: 15.8 | SI50: 10.0 | –
CC(C)n1ncc2c(C(=O)Nc3ccncn3)cc(-c3cccs3)nc21 [JX043, 1-Isopropyl-N-(pyrimidin-4-yl)-6-(thiophen-2-yl)-1H-pyrazolo[3,4-b]pyridine-4-carboxamide] | SI50: 100.0 | SI50: 33.3 | –
CC(C)n1ncc2c(C(=O)Nc3ccc(S(C)(=O)=O)cc3)cc(-c3cccs3)nc21 [JX047, 1-Isopropyl-N-(4-(methylsulfonyl)phenyl)-6-(thiophen-2-yl)-1H-pyrazolo[3,4-b]pyridine-4-carboxamide] | SI50: 100.0 | SI50: 200.0 | –
CC(C)n1ncc2c(C(=O)Nc3cccc(S(=O)(=O)N(C)C)c3)cc(-c3cccs3)nc21 [JX052, N-(3-(N,N-Dimethylsulfamoyl)phenyl)-1-isopropyl-6-(thiophen-2-yl)-1H-pyrazolo[3,4-b]pyridine-4-carboxamide] | SI50: >250.0 | SI50: 12.0 | –
